Reference: article PMC12491715 (Acta Pharmaceutica Sinica. B, 2025)
Where “and” joins values, the source holds several entries; their conditions need not be identical. Identical values can stand only once. Like-named read-outs stand apart in the source and are kept apart here.

Legend:
[1] = Aqueous stability (UPLC); format: physicochemical
Method: For the aqueous stability determination, UPLC analyses were performed as described under Chemistry–General Information. The method used a Waters Acquity UPLC® HSS C18 SB column (2.1 mm× 50 mm, 1.8 μm) thermostated at 40 °C, with: injection volume, 5 μL; flow rate, 0.4 mL/min; detector λ, 220 nm; mobile phase A: 0.1% TFA (v/v) in MilliQ water; mobile phase B: MeCN. Gradient: 0–5 min, 20%–100% B; 5–6 min, 20% B.
Compound stock solutions (100 mmol/L) were prepared in absolute EtOH, while the internal standard (caffeine) was dissolved in PBS (0.1 mg/mL). The aqueous stability solutions were prepared by mixing 1200 μL PBS with internal standard, 150 μL absolute EtOH, and 150 μL compound stock solution in a HPLC vial to give 10 mmol/L compound concentration in PBS/EtOH = 80:20, which was injected immediately and then at hourly intervals for 48 h. The analyte AUCs were normalized on internal standard AUCs and compared with the timepoint zero. For the rate calculation, pseudo-first order kinetics were assumed.
For investigation of compound 8 stability in an aqueous medium, its stock solution (10,000 mg/L) was prepared in EtOH. 15 μL of the stock solution was mixed with 60 μL of caffeine (2500 mg/L in EtOH) and 1425 μL of the respective aqueous solution/buffer to achieve final concentration of 100 mg/L with 5% ethanol content. The UPLC analysis was carried as described above.

[2] = molecular target: T1, BChE (Mus musculus, UniProt Q03311); experiment: Cholinesterase inhibition upon repeated dosing, serum BChE; format: in vivo, C57BL/6JRccHsd mice; details: for remaining activity at 1 mg/kg / remaining activity at 5 mg/kg: mouse, po
T1 construct: from tissue; host or cells: mouse serum (C57BL/6JRccHsd)
T1 sequence (Q03311 30-603): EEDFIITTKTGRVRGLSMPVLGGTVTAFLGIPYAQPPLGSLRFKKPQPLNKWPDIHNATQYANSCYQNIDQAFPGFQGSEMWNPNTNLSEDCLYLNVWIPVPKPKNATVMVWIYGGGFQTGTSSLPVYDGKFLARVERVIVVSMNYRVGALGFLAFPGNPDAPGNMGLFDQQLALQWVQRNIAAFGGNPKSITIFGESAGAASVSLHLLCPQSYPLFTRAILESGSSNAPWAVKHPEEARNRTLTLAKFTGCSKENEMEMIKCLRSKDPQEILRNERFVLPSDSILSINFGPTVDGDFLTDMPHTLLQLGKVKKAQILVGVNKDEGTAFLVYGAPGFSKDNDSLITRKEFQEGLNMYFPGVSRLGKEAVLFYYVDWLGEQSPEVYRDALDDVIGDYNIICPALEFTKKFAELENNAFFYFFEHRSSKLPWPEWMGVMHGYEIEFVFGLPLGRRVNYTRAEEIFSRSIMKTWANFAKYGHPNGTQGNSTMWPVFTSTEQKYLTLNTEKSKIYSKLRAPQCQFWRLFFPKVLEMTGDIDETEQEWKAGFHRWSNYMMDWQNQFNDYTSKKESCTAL
Description: The 12 mice used in this pilot study were 9–14 months old male wild-type C57BL/6JRccHsd mice bred in the Laboratory of Animal Genomics at the Faculty of Veterinary Medicine, University of Ljubljana, or purchased from Envigo RMS Holding Corp. Mice were conventionally bred in open polycarbonate cages (Tecniplast, Buguggiate, Italy) and provided with wood chip bedding (Lignocel®, Rettenmaier and Sons, Germany). Mice were kept under standard conditions, including a 12:12 dark–light cycle (LED, CCT 3000 k, with no more than 25 lux above the cage), a temperature range of 21–24 °C, and humidity between 50%–60%. They were fed irradiated rodent diet (Teklad global 16% protein rodent diet®, BN 2916, Envigo, Udine, Italy) and had access to drinkable tap water ad libitum. Due to the nature of this pilot study, the mice were housed individually. The experimental design was evaluated by the National Ethics Committee for Animal Experiments and approved by the Veterinary Administration of the Republic of Slovenia (document no. U34401-10/2021/8, with amendments U34401-10/2021/13 and U34401-10/2021/1).
Before the start of study, blood was drawn from the submandibular vein (facial vein) of the animals under isoflurane inhalation anesthesia (Isoflurin®, VetPharma, Spain) using a 5 mm lancet (Goldenrod Animal Sterile, MEDIpoint, Inc., NY, USA), collected in a microtube (Eppendorf, Safe-Lock tube, 0.5 mL, Eppendorf AG, Germany) and allowed to clot. After approximately 1 h, the blood was centrifuged at 6000 × g for 15 min at 4 °C to obtain the sera, which were stored at –80 °C until analysis.
Seven animals received the 1 mg/kg dose of compound 8, and five animals received the 5 mg/kg dose of compound 8. Compound 8 was prepared as a stock solution in 100% MeCN (5 and 10 mg/mL) and kept refrigerated for the duration of the study. The dosages were prepared as follows: based on the animal’s body weight, a calculated volume of compound 8 stock solution was accurately pipetted onto a cubic piece (approx. 50 mg) of sterilized toast (Ölz multigrain toast, Rudolf Ölz Meisterbäcker GmbH & Co KG, Austria), and left to dry at room temperature for 5 min. Subsequently, 25 μL of 50% sucrose in distilled water were added at the same site to mask the bitter taste of compound 8. These dosage units were prepared twice a week during the study and stored in a closed glass petri dish at room temperature until use. […] Compound 8 was administered in this way for 27 days, eliminating the need for repeated handling and injection. The animals were observed daily for general activity level, hair coat quality or other abnormal behavior or clinical signs.
24 h after the last dose was administered, the mice were humanly euthanized under isoflurane inhalation anesthesia (Isoflurin®, VetPharma, Spain) and the blood was withdrawn from the left ventricle using a syringe, collected in a microtube (Eppendorf, Safe-Lock tube, 0.5 mL, Eppendorf AG, Germany) and allowed to clot. After approximately 1 h, the blood was centrifuged at 6000 × g for 15 min at 4 °C to obtain the sera, which were stored at –80 °C until analysis. […] Animal sera (5–10 μL) were diluted in 0.5 mmol/L DTNB in 0.1 mol/L sodium phosphate buffer pH 7.4 (total volume 1000 μL), substrate (5 μL of 100 mmol/L, final concentration 0.5 mmol/L) was added, and the increase in absorbance monitored for 3 min. BChE activity was determined using butyrylthiocholine iodide, while AChE activity was determined on isoOMPA-inhibited sera (buffer-diluted sera were preincubated for 25 min with 1 μL of 100 mmol/L isoOMPA–0.1 mmol/L final concentration) using acetylthiocholine iodide (final concentration 0.5 mmol/L). Measurements were performed in triplicate and pairwise compared before and after treatment for each subject (n = 5 per group).

## CCN(CC)C(=O)n1cnc(C2(CC)Cc3ccccc3C2)c1 [Compound 8, N,N-Diethyl-4-(2-ethylindan-2-yl)-1H-imidazole-1-carboxamide]
[1]; PBS:EtOH = 80:20, 10 mmol/L, during 48 h
  t1/2 in aqueous solution: stable
[1]; PBS:EtOH = 95:5, 100 mg/L
  % left after 24 h: 100.0%
[1]; pH 2:EtOH = 95:5, 100 mg/L
  % left after 24 h: 99.9%
[1]; pH 4:EtOH = 95:5, 100 mg/L
  % left after 24 h: 100.0%
[1]; pH 6:EtOH = 95:5, 100 mg/L
  % left after 24 h: 100.0%
[1]; pH 10:EtOH = 95:5, 100 mg/L
  % left after 24 h: 97.7%
[2]; 1 mg/kg p.o. once a day for 4 weeks, compared to before treatment, 1 mg/kg
  BChE residual activity, AVERAGE: 21%±6%
[2]; 1 mg/kg p.o. once a day, individual animals, 1 mg/kg
  BChE activity AFTER treatment: 0.2139±0.0118 U/mL and 0.1602±0.0041 U/mL and 0.1484±0.0071 U/mL and 0.2261±0.0071 U/mL and 0.2214±0.0082 U/mL
[2]; 1 mg/kg p.o. once a day, individual animals, after vs before treatment, 1 mg/kg
  BChE residual activity: 27.0%±4.2% and 15.9%±1.1% and 19.4%±1.8% and 20.1%±2.4%
[2]; 5 mg/kg p.o. once a day for 4 weeks, compared to before treatment, 5 mg/kg
  BChE residual activity, AVERAGE: 10%±5%
[2]; 5 mg/kg p.o. once a day, individual animals, 5 mg/kg
  BChE activity AFTER treatment: 0.1060±0.0071 U/mL and 0.0989±0.0071 U/mL and 0.0801±0.0268 U/mL and 0.0683±0.0108 U/mL and 0.0919±0.0000 U/mL
[2]; 5 mg/kg p.o. once a day, individual animals, after vs before treatment, 5 mg/kg
  BChE residual activity: 10.6%±1.7% and 6.9%±2.9% and 12.1%±2.7% and 10.8%±2.1%
[2]; 1 mg/kg p.o. once a day for 4 weeks, compared to before treatment, read-out: BChE residual activity, AVERAGE
  remaining activity at 1 mg/kg: 20.6%
[2]; 1 mg/kg p.o. once a day, individual animals, after vs before treatment, read-out: BChE residual activity
  remaining activity at 1 mg/kg: 20.3%
[2]; 5 mg/kg p.o. once a day for 4 weeks, compared to before treatment, read-out: BChE residual activity, AVERAGE
  remaining activity at 5 mg/kg: 10.1%
[2]; 5 mg/kg p.o. once a day, individual animals, after vs before treatment, read-out: BChE residual activity
  remaining activity at 5 mg/kg: 10.1%
